{"source": "patent US11229643B2", "about": "“Combinations of FGFR4 inhibitors and bile acid sequestrants” (NOVARTIS AG, priority 2016, dated 2022)", "key": {"advanced HCC": {"tested_on": "advanced HCC", "details": "patients with advanced HCC; cited from earlier work"}, "[1]": {"assay": "Dog cross-over study: plasma miR-122 levels (Taqman, standard curve method)", "type": "in vivo, Beagle dogs", "procedure": "Plasma miR-122 levels, a liver enriched microRNA used as biomarker of liver injury (Starkey Lewis P J et al., Clin Pharmacol Ther, 2012, 291-293), were determined. miR-122 is considered as a liver-specific marker.\nSmall RNA was extracted from 50 μl of plasma by using the miRNeasy/MinElute kit and following the instructions of the manufacturer (Qiagen). Elution of small RNA was realized in 14 μl of nucleic acid-free H2O.\n3.2 μl of eluted small RNA was reverse transcribed into cDNA by using the Megaplex RT primer human pool A and B and the Taqman MicorRNA Reverse Transcription kit (Applied Biosystems/Life Technologies, reference 4366596) and following the instructions of the manufacturer.\n2.5 μl of cDNA was preamplified by using the Megaplex Preamp primer human pool A and B (Applied Biosystems/Life Technologies, reference 4399201 and 4399233) and the Taqman PreAmp Master mix (Applied Biosystems/Life Technologies, reference 4391128) and following the instructions of the manufacturer.\nmicroRNA miR-122 was amplified from preamplified cDNA by using a commercially available validated Taqman assay (reference 002245) diluted in the Taqman MasterMixII (Applied Biosystems/Life Technologies) and following the instructions of the manufacturer.\nThe relative quantification of plasmatic microRNA levels was performed using the standard curve method to generate expression values as number of molecules.\nStatistical significance of mRNA measurements was assessed using the two-sample unequal variance, two-tailed distribution (hetero-scedastic Student's t-test, Excel). Coefficients of variation with a P value <0.05 were considered to be statistically significant."}, "456 kinases": {"tested_on": "456 kinases", "details": "cited from earlier work"}, "[2]": {"assay": "4-week dog study, ALT and AST", "type": "in vivo", "source_text": "The maximal increase was 6-fold and ≤2-fold for ALT and AST respectively (relative to pre-dose values), and occurred during week 2 of the study. Generally, there was no further increase in transaminase levels despite continued dosing over the 4-weeks indicating a level of adaptation to these pharmacologically mediated effects."}, "[3]": {"assay": "Dog cross-over study of Compound A with or without cholestyramine: serum ALT activity", "type": "in vivo, Beagle dogs", "details": "Cpd A 5 mg/kg/day", "procedure": "Male Beagle dogs were obtained from Marshall BioResources (North Rose, N.Y.). For the study, all animals were nave to treatment. All animals used in the study were healthy and suitable for use. The dose volume for Cpd A and its vehicle was 5 mL/kg. For CHO, the dosing aliquot was dispersed in 75 mL total animal drinking water.\nFor the study, a dosing paradigm was followed with initial loading dose of either vehicle or CHO on the last day of pretest (day −1), and dosing of either vehicle or CHO on days 1-7.\nN-(5-cyano-4-((2-methoxyethyl)amino)pyridin-2-yl)-7-formyl-6-((4-methyl-2-oxopiperazin-1-yl)methyl)-3,4-dihydro-1,8-naphthyridine-1(2H)-carboxamide dosing was initiated on day 8, with the second dosing event of each day for either vehicle or CHO. Food was presented to the animals after the second daily dosing event. Animals were not dosed on day 15. Dosing was restarted on day 24 and the dose groups crossed over on day 38-44, with the last day of dosing on day 44.\nClinical observations, twice-weekly body weights, and daily food consumption determinations were performed.\nFecal samples were collected for bile acid (BA) analysis once during pretest and on days 7, 10, 14, 17, 24, 28, 35, 42, and 49.\nPlasma was collected from all animals for bile acid profiling during the study, concurrent with clinical pathology and/or toxicokinetic sampling as follows: at approximately 3 hours postdose (post vehicle, CHO or Cpd A, as appropriate) on days 1, 3, 7, 8, 11, 14, 15, 18, 21, 23, 25, 28, 31, 35, 38, 42, 45, 49, and 52. On days 8, 14, 25, and 39 only, samples were collected at predose and approximately 0.5, 1, 3, 7, and 24 hours postdose (post Cpd A dosing). In addition, on day 44, bile acid biomarker samples were collected at 3, 7, and 24 hours postdose (concurrent with the last toxicokinetic blood collection)."}, "[4]": {"details": "relative to pre-dose values, during week 2 of 4-week dog study"}}}
{"smiles": "COCCNc1cc(NC(=O)N2CCCc3cc(CN4CCN(C)CC4=O)c(C=O)nc32)ncc1C#N", "note": "[Compound A, N-(5-cyano-4-((2-methoxyethyl)amino)pyridin-2-yl)-7-formyl-6-((4-methyl-2-oxopiperazin-1-yl)methyl)-3,4-dihydro-1,8-naphthyridine-1(2H)-carboxamide]", "values": [{"measurement": "clinical activity", "setting": "advanced HCC", "value": "promising clinical activity"}, {"measurement": "increase in miR-122 levels, maximum average", "setting": "[1]; recovery period study day 15-23, at day 21, compared with study day 1-7", "value": "≤ 5.4", "unit": "fold"}, {"measurement": "increase in miR-122 levels, peak", "setting": "[1]; recovery study days 45-52, Group 1 animal 1001, day 49", "value": "≤ 22.2", "unit": "fold"}, {"measurement": "increase in miR-122 levels, peak", "setting": "[1]; recovery study days 45-52, Group 1 animal 1003, day 49", "value": "≤ 47.9", "unit": "fold"}, {"measurement": "increase in miR-122 levels, peak", "setting": "[1]; recovery study days 45-52, Group 1 animal 1005, day 49", "value": "≤ 16.4", "unit": "fold"}, {"measurement": "increase in miR-122 levels, peak", "setting": "[1]; recovery study days 45-52, Group 1 animal 1006, day 49", "value": "≤ 40.1", "unit": "fold"}, {"measurement": "change in miR122 compared to respective controls, overall", "setting": "[1]; some animals", "value": "minimal to moderate increases"}, {"measurement": "increase in miR-122 levels, maximum average", "setting": "[1]; study day 8-14, at day 14, compared with study day 1-7", "value": "≤ 2.5", "unit": "fold"}, {"measurement": "increase in miR-122 levels, maximum", "setting": "[1]; study days 25-38, animal 2003, at day 38", "value": "≤ 151", "unit": "fold"}, {"measurement": "increase in miR-122 levels, maximum average", "setting": "[1]; study days 25-38, animal 2006, at day 31", "value": "≤ 63", "unit": "fold"}, {"measurement": "increase in miR-122 levels, average", "setting": "[1]; study days 39-42, following the second cross-over", "value": "≤ 7.8", "unit": "fold"}, {"measurement": "targets found in kinome wide scan", "setting": "456 kinases", "value": "FGFR4 was the only target"}, {"measurement": "recovery of ALT/AST increases evident", "setting": "[2]; day following cessation of Compound A administration", "value": "≤ 8", "unit": "days"}, {"measurement": "maximal increase in ALT", "setting": "[2]; [4]", "value": 6, "unit": "fold"}, {"measurement": "maximal increase in AST", "setting": "[2]; [4]", "value": "≤ 2", "unit": "fold"}, {"measurement": "increase in serum ALT activity", "setting": "[3]; compared with pretest, first dosing period (from day 8)", "value": 3.5, "unit": "fold"}, {"measurement": "change in serum ALT activity, in general", "setting": "[3]; dogs", "value": "minimal to moderate increases"}, {"measurement": "increase in serum ALT activity", "setting": "[3]; following the first cross-over", "value": 6, "unit": "fold"}, {"measurement": "increase in serum ALT activity", "setting": "[3]; following the second cross-over", "value": 3.5, "unit": "fold"}]}
